In US20030039661A1, “Methods, compositions and kits for preserving antigenicity” (priority 2001, published 2003):
Blank lines part the entries; values can stand above or below the molecule they belong to. Peptide text beside a SMILES is read from it. * marks the point of attachment. Cbz = O=C(OCc1ccccc1)*; CH2F = FC*

Assays:
[1] = tested on: mammary epithelial cells; settings: in the absence of extracellular matrix; cited from earlier work
[2] = tested on: granulocytes; experiment: Respiratory burst in isolated neutrophils measured by chemiluminescence (opsonized zymosan); type: cell-based; settings: FIG. 7
Method: Respiratory Burst in Isolated Neutrophils Measured by Chemiluminescence
Whole blood anticoagulated with Acid Citrate Dextrose (ACD) with a ratio of 1:5 ACD to blood was collected (150 ml).
Neutrophils were isolated as described above.
Opsonized zymosan was prepared by suspending 125 mg zymosan particles in 25 ml pooled human serum (5 mg/ml) and incubating them for 20 minutes at 37° C. Centrifuge the suspension and resuspend the particles in 7 ml of PBS (18 mg/ml) and stored on ice until use (vortex prior to pipetting).
50 ml of a 250 μM solution of Lucigenin (MW 510.5) was prepared by dissolving 6.4 mg of the solid in 50 ml of PBS-G (+Ca, Mg). 10 μl of PBS-G (+Ca, Mg) to the wells in a white 96 well plate.
50 μl of the 250 μM Lucigenin solution was added to the wells in a white 96 well plate.
Cell preparations were obtained from cell culture (concentration at time zero=5.0×10^6 cells/ml) with PBS-G (+Ca, Mg).
20 μl of the neutrophil suspension was suspended to the appropriate wells and the plate was incubated at 37° C. for three minutes. 10 μl of the opsonized zymosan was added to the wells.
The plate was read on the luminometer (Labsystems Luminoskan, Needham Heights, Mass.) for 14 min. at 37° C. in the kinetic mode and record results using the software DeltaSoft.
The ability to undergo the respiratory burst is another measure of granulocyte viability. The respiratory burst is a physiological response of granulocytes to foreign stimuli such as bacteria. In this example, the method for inducing the respiratory burst utilized opsonized bacterial zymosan. The respiratory burst was measured via chemiluminescence.

[3] = tested on: granulocytes in whole blood; experiment: Whole blood assay: survival of granulocytes in whole blood by hypodiploid analysis; type: cell-based
Method: The following protocol was followed:
200 μl blood sample/2.8 ml 1× lysis solution in a 15 ml polypropylene conical tube.
Add 20 μl/sample anti-CD32-FITC. Incubate 30 minutes on ice in the dark.
Add 3 ml/sample ice-cold 95% EtOH dropwise while vortexing gently.
Resuspend each sample in 50 μl 5 mg/ml RN'ase. Transfer sample to 900 μl/sample.
50 μg/ml Propidium Iodide in 12×75 mm Falcon polystyrene tubes.
Analyze samples by flow cytometry (argon laser) for forward and side scatter and fluorescence.
Survival of granulocytes in whole blood was measured by hypodiploid analysis in a similar fashion to isolated granulocytes via flow cytometry. ICE/ced-3 inhibitors of the present invention maintained survival of granulocytes in whole blood for 96 hours at room temperature as indicated in the table below: […]

[4] = tested on: granulocytes; experiment: Granulocyte survival, hypodiploid nuclei by propidium iodide flow cytometry (isolated granulocytes in culture); type: cell-based; settings: FIG. 6; for IC50: isolated granulocytes cultured at 37° C., read-out: IC50 for granulocyte survival (hypodiploid DNA)
Method: Neutrophil Culture Conditions:
The culture media was as follows: (RPMI 1640; 10% FBS; 10 mM Hepes; 0.2 mM L-glutamine; 25 U/ml penicillin; and […] streptomycin).
Purified neutrophil maintenance was performed under the following conditions: (5×10^6 cells/ml in above culture media; Polystyrene round-bottom 96-well plates; 250 μl/well; and 37° C., 5% CO2/95% air humidified incubator) (Liles et al., Blood 119 (1995) 3181-3188).
Analysis of Hypodiploid Nuclei by Flow Cytometry:
(50 μg/ml propidium iodide (Sigma catalog#P4170); 0.1% Triton X-100; and 0.1 sodium citrate).
Neutrophils were pelleted at 4° C. and the supernate aspirated.
Neutrophils were resuspended in hypotonic fluorochrome solution at a density of 5×10^6 cells/ml. Propidium iodide fluorescence of individual nuclei was evaluated in FL2 and measured on a logarithmic scale while gating on physical parameters in forward and side scatter to exlude cell debris.
At least 10,000 events per sample were collected and the results were evaluated relative to a non-apoptotic neutrophil population. (Liles et al., Blood 119 (1995) 3181-3188).
The present invention provides methods to enhance the ex vivo survival of neutrophils/granulocytes. To establish the ability of compounds to preserve granulocytes in culture, compounds were tested in a number of in vitro assays. One common model to test for effects on granulocyte survival involves separating granulocytes from fresh whole blood, culturing the cells at 37° C. and testing cells for nuclear hypodiploidy at 24 hour intervals (as described in Example 110). The presence of hypodiploid DNA is a measure of apoptosis, and is assessed using a propidium iodide stain via flow cytometry. Compounds of the present invention were incubated with the granulocytes in culture, their effects on granulocyte survival measured, and an IC50 calculated.

[5] = tested on: T-lymphocyte cell line; settings: cited from earlier work
[6] = tested on: motoneurons; settings: in vitro and in vivo; cited from earlier work
[7] = after granulocyte culture for 72 hours
[8] = granulocyte culture for 48 hours

Molecule: CC(C)(C)OC(=O)N[C@@H](CC(=O)OCc1ccccc1)C(=O)CCl [Boc-D-(benzyl) chloromethylketone]
cell death of mammary epithelial cells [1]: prevented

Molecule: Cc1c(C(=O)N[C@H](C(=O)NC(CC(=O)O)C(=O)CF)C(C)C)n(C)c2ccccc12 (some centres unmarked) [Example 43, N-[(1.3-dimethylindole-2-carbonyl)valinyl]-3-amino-4-oxo-5-fluoropentanoic Acid]
maintenance of the respiratory burst [2, 7]: partially maintained
maintenance of the respiratory burst [2, 8]: substantially maintained
Percentage of diploid granulocytes in whole blood ([3]; 96 hours at room temperature): 91%
Percentage of diploid granulocytes in whole blood ([3]; time zero): 96%

Molecule: Cc1c(C(=O)N[C@H](C(=O)NC(CC(=O)O)C(=O)COC(=O)c2c(Cl)cccc2Cl)C(C)C)n(C)c2ccccc12 (some centres unmarked) [Example 70, N-[N-(1,3-dimethyl-indole-2-carbonyl)-valinyl]-3-amino-5-(2,6-dichlorobenzoyl)oxy-4-oxo-pentanoic Acid]
IC50 [4]: < 5 µM
maintenance of the respiratory burst [2, 7]: partially maintained
maintenance of the respiratory burst [2, 8]: substantially maintained
Percentage of diploid granulocytes in whole blood ([3]; 96 hours at room temperature): 89%
Percentage of diploid granulocytes in whole blood ([3]; time zero): 96%

Molecule: O=C(O)CC(NC(=O)[C@@H]1Cc2cccc3c2N1C(=O)[C@@H](NC(=O)OCc1ccccc1)CC3)C(=O)CF (some centres unmarked) [Example 106]
IC50 [4]: < 5 µM

Molecule: CC(=O)N[C@@H](CC(=O)O)C(=O)N[C@@H](CCC(=O)O)C(=O)N[C@H](C(=O)N[C@H](C=O)CC(=O)O)C(C)C [acetyl-DEVD-aldehyde]
anti-Fas induced apoptosis [5]: inhibited

Molecule: CC(=O)N[C@@H](Cc1ccc(O)cc1)C(=O)N[C@H](C(=O)N[C@@H](C)C(=O)N[C@@H](CC(=O)O)C(=O)CCl)C(C)C [acetyl-YVAD-chloromethylketone]
death of motoneurons [6]: blocked

Molecule: COC(=O)C[C@H](NC(=O)[C@H](C)NC(=O)[C@@H](NC(=O)OCc1ccccc1)C(C)C)C(=O)CF [zVADfmk, reference compound] (Cbz-Val-Ala-Asp(OMe)-CH2F)
effect on improving granulocyte survival ([4]; at 48 hours): weak effect
maintenance of the respiratory burst ([2]; time not stated): did not maintain

Molecule: acetyl-AD-aldehyde
death of motoneurons [6]: blocked

Next, values leading:

melting point: 101 to 104 °C
Molecule: O=C1C[C@H](NC(=O)[C@@H]2Cc3cccc4c3N2C(=O)[C@@H](NC(=O)OCc2ccccc2)CC4)C(O)O1 (some centres unmarked) [Example 78]

melting point: 160 to 175 °C (dec.)
Molecule: CC(=O)N[C@@H](CC(=O)O)C(=O)N[C@H]1CCc2cccc3c2N(C1=O)[C@H](C(=O)N[C@H]1CC(=O)OC1O)C3 (some centres unmarked) [Example 82]

melting point: 145 to 160 °C (dec.)
Molecule: O=C(O)CCC(=O)N[C@H]1CCc2cccc3c2N(C1=O)[C@H](C(=O)N[C@H]1CC(=O)OC1O)C3 (some centres unmarked) [Example 85]

melting point: 140 to 144 °C (dec.)
Molecule: O=C(O)C[C@H](NC(=O)OCc1ccccc1)C(=O)N[C@H]1CCc2cccc3c2N(C1=O)[C@H](C(=O)N[C@H]1CC(=O)OC1O)C3 (some centres unmarked) [Example 88]

melting point: 78 to 81 °C
Molecule: O=C(CCc1ccccc1)N[C@H]1CCc2cccc3c2N(C1=O)[C@H](C(=O)N[C@H]1CC(=O)OC1O)C3 (some centres unmarked) [Example 91]

melting point: 210 to 215 °C (dec.)
Molecule: CC(=O)N[C@H]1CCc2cccc3c2N(C1=O)[C@H](C(=O)N[C@H]1CC(=O)OC1O)C3 (some centres unmarked) [Example 94]

melting point: 202 to 203 °C (dec.)
Molecule: O=C1C[C@H](NC(=O)[C@@H]2Cc3cccc4c3N2C(=O)[C@@H](NC(=O)c2cccc3ccccc23)CC4)C(O)O1 (some centres unmarked) [Example 97]

melting point: 204 to 205 °C (dec.)
Molecule: O=C1C[C@H](NC(=O)[C@@H]2Cc3cccc4c3N2C(=O)[C@@H](NC(=O)c2ccccc2)CC4)C(O)O1 (some centres unmarked) [Example 100]

melting point: 120 to 123 °C (dec.)
Molecule: O=C1C[C@H](NC(=O)C2CCc3cccc4c3N2C(=O)[C@@H](NC(=O)OCc2ccccc2)CC4)C(O)O1 (some centres unmarked) [Example 103]

melting point: 109 to 111 °C (dec.)
Molecule: O=C(O)C[C@H](NC(=O)[C@@H]1Cc2cccc3c2N1C(=O)[C@@H](NC(=O)OCc1ccccc1)CC3)C(=O)COP(=O)(c1ccccc1)c1ccccc1 [Example 109, 3-[(2S-cis)-[5-benzyloxycarbonylamino-1,2,3,4,5,6,7-hexahydro-4-oxoazepino[3,2,1-hi]indole-2-carbonyl]amino]-5-(diphenylphosphinyl)oxy-4-oxo-pentanoic Acid]
